pIC50: −log10 of the molar value. Values after ≈ are worked out from the molar mass of the structure shown. Values joined by “and” are separate entries in the source; they are usually repeats but may differ in a detail not shown here. Equal entries are not always repeated. Where two headings read alike, the source gives them in different places.
What was measured:
M. smegmatis [1] = system: M. smegmatis; parameters: method as in PMID 22956199; conditions: cited from earlier work
M. smegmatis DprE1 = system: M. smegmatis DprE1; parameters: method as in PMID 22956199; conditions: cited from earlier work; for pIC50: read-out: M. smegmatis DprE1 enzymatic IC50
M. smegmatis [2] = assay: MIC against M. smegmatis (literature); format: cell-based
M. vaccae 10670 = assay: Minimal inhibitory concentration, M. vaccae; format: cell-based; conditions: Mycolicibacterium vaccae, 10670; n = 1
Mtb-DprE1 [3] = biological target: T1, Mtb-DprE1 (Mycobacterium tuberculosis, UniProt P9WJF1); assay: biochemical; format: biochemical
T1 construct: made in house; host or cells: E. coli

Mtb-DprE1 [4] = biological target: T1, Mtb-DprE1; assay: Intact protein mass spectrometry of Mtb-DprE1 after incubation with inhibitor; format: binding; conditions: for extent of modification of Mtb-DprE1: 20 μM FAD
M. tuberculosis H37Rv = assay: Minimal inhibitory concentration, M. tuberculosis H37Rv; format: cell-based, Mycobacterium tuberculosis; conditions: Mycobacterium tuberculosis, H37RV; n = 3; read-out: MIC Mtb-H37Rv
Experimental: MIC values for M. tuberculosis H37Rv and M. vaccae […] were determined as described previously[33],[34].

T1 sequence (P9WJF1 whole entry): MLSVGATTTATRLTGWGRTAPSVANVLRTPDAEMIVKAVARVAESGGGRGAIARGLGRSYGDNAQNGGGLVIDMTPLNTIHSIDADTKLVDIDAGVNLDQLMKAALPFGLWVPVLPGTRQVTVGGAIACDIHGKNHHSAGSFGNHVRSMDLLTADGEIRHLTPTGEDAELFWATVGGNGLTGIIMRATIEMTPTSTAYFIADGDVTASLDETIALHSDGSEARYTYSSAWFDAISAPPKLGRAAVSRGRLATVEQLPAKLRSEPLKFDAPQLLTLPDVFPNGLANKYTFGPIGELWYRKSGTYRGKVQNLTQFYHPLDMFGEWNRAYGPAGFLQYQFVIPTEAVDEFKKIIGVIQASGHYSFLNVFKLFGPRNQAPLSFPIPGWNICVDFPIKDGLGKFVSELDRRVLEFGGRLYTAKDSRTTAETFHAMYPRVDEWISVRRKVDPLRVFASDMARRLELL

Compound | MIC against M. smegmatis (M. smegmatis [1]) | time dependent inhibition of M. smegmatis DprE1 (M. smegmatis DprE1) | pIC50 (M. smegmatis DprE1) | fold by which MIC against M. smegmatis is lower than the enzymatic IC50 (M. smegmatis [2]; from literature values) | MIC (M. vaccae 10670) | pIC50 (Mtb-DprE1 [3]; IC50, final value of the decrease during the first 100 min of reaction, 100 min of reaction) | pIC50 (Mtb-DprE1 [3]; IC50, starting value of the decrease during the first 100 min of reaction, early reaction time) | mass increase of Mtb-DprE1 species (covalent adduct) (Mtb-DprE1 [4]; 10 µM Mtb-DprE1, 20 µM compound, absence of FPR and resazurin) | time for covalent modification of the enzyme to reach completion (Mtb-DprE1 [4]; 20 μM compound, 10 µM Mtb-DprE1, no FPR) | extent of modification of Mtb-DprE1 (Mtb-DprE1 [4]; 30 minutes after incubation) | extent of modification of Mtb-DprE1 (Mtb-DprE1 [4]; 60 minutes after incubation) | mass increase of Mtb-DprE1 (covalent adduct) (Mtb-DprE1 [4]; incubated in the presence of FPR and FAD, LC-MS) | MIC (M. tuberculosis H37Rv) | pIC50 (Mtb-DprE1 [3]; after 10 min of reaction time, read-out: enzymatic DprE1 IC50) | pIC50 (Mtb-DprE1 [3]; after 100 min of reaction time, read-out: enzymatic DprE1 IC50) | pIC50 (Mtb-DprE1 [3]; equal to half the concentration of enzyme in the assay (150 nM), read-out: limiting IC50 value in theory had the assay been monitored longer) | dependence of kobs on inhibitor concentration (Mtb-DprE1 [3]; inhibitor 10 nM to 100 µM) | change in the mass spectrum of Mtb-DprE1 (Mtb-DprE1 [4]; control experiment in the absence of substrate) | fold by which reported M. smegmatis and M. tuberculosis MIC values are lower than M. smegmatis DprE1 IC50 (M. smegmatis [2]; MIC ref 4, IC50 ref 9)
C[C@H]1COC2(CCN(c3nc(=O)c4cc(C(F)(F)F)cc(NO)c4s3)CC2)O1 [BTZ046] | 1000 ng/ml and 2.4 μM | not observed | 4.70 | approximately 8 fold | – | – | – | – | – | – | – | – | – | – | – | – | – | – | –
O=c1nc(N2CCCCC2)sc2c(NO)cc(C(F)(F)F)cc12 [Compound 2] | – | – | – | – | 18.1 µM (≈ 6.25 µg/mL) | 6.10 | 5.46 | 340–343 Da | approximately one hour | partial modification | complete modification | 343 Da | > 80 µM | – | – | – | – | – | –
C[C@H]1COC2(CCN(c3nc(=O)c4cc(C(F)(F)F)cc([N+](=O)[O-])c4s3)CC2)O1 [Compound 12, reference compound] | – | – | 5.35 | – | – | – | – | – | – | – | – | – | – | ~5.82 | ~6.92 | 7.12 | linear dependence | no change was observed | approximately 1000 fold
